Experimental data published in patent US9387221B2, “SDF-1 binding nucleic acids and the use thereof in cancer treatment” (NOXXON Pharma AG, priority 2010, dated 2016).
Entries after “also recorded” stand apart in the source; their conditions may differ.

Test system: biotinylated human D-SDF-1
Test: Competitive pull-down binding assay
Details: for binding affinity of derivatives of 192-A10-001 in competitive pull-down binding assay: vs. 192-A10-001 and 192-A10-008; for binding affinity in competitive pull-down binding assay vs. 191-D5-007: reference 191-D5-007; for binding affinity in competitive pull-down binding assay vs. 192-A10-001: aptamer level, reference 192-A10-001; for binding to human SDF-1 in comparison to 193-G2-001: reference 193-G2-001; for binding affinity of derivatives of 193-G2-001 and 193-C2-001 in competitive pull-down binding assay: vs. 193-G2-001 and 193-G2-012; for binding affinity of derivatives of 190-A3-001: compared with 190-A3-001
Procedure: In order to compare different D-SDF-1 binding aptamers, a competitive ranking assay was performed. For this purpose the most affine aptamer available was radioactively labeled (see above) and served as reference. […] An excess of de- and renatured non-labeled D-RNA aptamer variants was added to different concentrations (e.g. 2, 10, and 50 nM) with the labeled reference aptamer to parallel binding reactions. The aptamers to be tested competed with the reference aptamer for target binding, thus decreasing the binding signal in dependence of their binding characteristics.

In the case of “GGGCAAAGCAACAUGUCAAUGAAAGGUAGCGCCC (aptamer; chemistry not given here) [192-A10-020]”, the “binding affinity of derivatives of 192-A10-001 in competitive pull-down binding assay” value is reported as “weaker, much weaker or very much weaker binding affinity”.

In the case of “CGGCGGGUUAGGGCUAGAAGUCGGCGCCG (chemistry not fully specified) [191-D5-024-29a]”, the “binding affinity in competitive pull-down binding assay vs. 191-D5-007” value is reported as “identical binding affinity to SDF-1 as 191-D5-007”.

For “GCGGGGGUUAGGGCUAGAAGUCGGCCUGC (chemistry not fully specified) [197-B2-005]”, the “binding affinity of truncated derivatives of 197-B2” value (vs. 197-B2 and 191-D5-007) was “without loss of binding affinity”.

With “GUGCUGCGGGGGUUAGGGCUCGAAGUCGGCCCGCAGCAC (chemistry not given here) [197-H3]” the “binding affinity in competitive pull-down binding assay vs. 192-A10-001” value was “weaker binding affinities”.

In the case of “GUGGUGUGAUCUAGAUGUAGUGGCUGUUCCUAGUCAGGUAUGC (chemistry not fully specified) [193-E3-002]”, the “binding to human SDF-1 in comparison to 193-G2-001” value (“binding … to 193-G2-001” for short) is reported as “reduced binding”.

In the case of “GCGUGGUGUGAUCUAGAUGUAAUGGCUGAUCCUAGUCAGGGACGC (chemistry not fully specified) [193-D3-002]”, the “binding … to 193-G2-001” value is reported as “reduced binding; also recorded: weaker binding affinities”.

For “GGCGGGUUAGGGCUAGAAGUCGGCGCC (chemistry not fully specified) [191-D5-024]”, the “binding affinity in competitive pull-down binding assay vs. 191-D5-007” value was “reduced binding affinity”.

For “GCGCGUGUGAUCUAGAUGUAUUGGCUGAUCCUAGUCAGGGCGC (chemistry not fully specified) [193-G2-014]”, the “binding affinity of derivatives of 193-G2-001 and 193-C2-001 in competitive pull-down binding assay” value was “reduced binding affinity”.

With “GGUGUGAUCUAGAUGUAGUGGCUGAUCCUAGUCAGGU (Listed both as L-RNA Spiegelmer and D-RNA aptamer, further chemistry not given here) [193-C2-006]” the “binding affinity of derivatives of 193-G2-001 and 193-C2-001 in competitive pull-down binding assay” value was “reduced binding affinity”.

With “GCCCAAAGCAACAUGUCAAUGAAAGGUAGCGGGC (aptamer; chemistry not given here) [192-A10-022]” the “binding affinity of derivatives of 192-A10-001 in competitive pull-down binding assay” value was “weaker, much weaker or very much weaker binding affinity”.

For “AGCGUGAAAGUAACACGUAAAAUGAAAGGUAACCACGCU (Made as D-RNA aptamer and L-RNA Spiegelmer, tested form not given here, further chemistry not given here) [191-A6]”, the “binding affinity in competitive pull-down binding assay vs. 192-A10-001” value was “Weaker binding affinity”.

“GUGUUCCCGGGGUUAGGGCUUGAAGUCGGCCGGCAGCAC (aptamer; chemistry not fully specified) [197-B1]” was tested, and the “binding affinity in competitive pull-down binding assay vs. 192-A10-001” value was “Much weaker binding affinity”.

In the case of “CGCCGGGGUUAGGGCUAGAAGUCGGCCGGCG (chemistry not fully specified) [197-B2-006-31b]”, the “binding affinity in competitive pull-down binding assay vs. 191-D5-007” value is reported as “the same as shown for 191-D5-007 and 197-B2-006”.

For “GCGUGGUGUGAUCUAGAUGUAAAGGCUGAUCCUAGUCAGGUACGC (chemistry not fully specified) [193-H3-002]”, the “binding … to 193-G2-001” value was “reduced binding”.

For “GCUGUGAAAGCAACAUGUCAAUGAAAGGUAGCCACAGC (aptamer; Made as D-RNA aptamer and L-RNA Spiegelmer, tested form not given here, further chemistry not given here) [192-E9]”, the “binding affinity in competitive pull-down binding assay vs. 192-A10-001” value was “much weaker binding affinity”.

With “GCAUGGUGUGAUCUAGAUGUAGUGGCUGAUCCUAGUCAGGUGCCC (chemistry not fully specified) [193-A1-002]” the “binding … to 193-G2-001” value was “reduced binding; also recorded: weaker binding affinities”.

With “CGUGAAAGCAACAUGUCAAUGAAAGGUAGCCGCG (aptamer; chemistry not given here) [192-A10-016]” the “binding affinity of derivatives of 192-A10-001 in competitive pull-down binding assay” value was “weaker, much weaker or very much weaker binding affinity”.

With “GCUGUGAAAGUAACAUGUCAAUGAAAGGUAACCACAGC (aptamer; Made as D-RNA aptamer and L-RNA Spiegelmer, tested form not given here, further chemistry not given here) [192-G10]” the “binding affinity in competitive pull-down binding assay vs. 192-A10-001” value was “Weaker binding affinity”.

In the case of “GGGCGUGUGAUCUAGAUGUAUUGGCUGAUCCUAGUCAGGGCCC (chemistry not fully specified) [193-G2-015]”, the “binding affinity of derivatives of 193-G2-001 and 193-C2-001 in competitive pull-down binding assay” value is reported as “reduced binding affinity”.

With “GCAGUGAAAGUAACAUGUCAAUGAAAGGUAACCACAGC (aptamer; Made as D-RNA aptamer and L-RNA Spiegelmer, tested form not given here, further chemistry not given here) [192-D11]” the “binding affinity in competitive pull-down binding assay vs. 192-A10-001” value was “Weaker binding affinity”.

“GUGCUGUGGGGGUCAGGGCUAGAAGUCGGCCUGCAGCAC (chemistry not given here) [197-D2]” was tested, and the “binding affinity in competitive pull-down binding assay vs. 192-A10-001” value was “Much weaker binding affinity”.

“GAAAGCAACAUGUCAAUGAAAGGUAGCC (chemistry not fully specified) [192-A10-006]” was tested, and the “binding affinity of derivatives of 192-A10-001 in competitive pull-down binding assay” value was “reduced binding affinity”.

For “GCGAGGUGUGAUCUAGAUGUAGUGGCUGAUCCUAGUCAGGUGCGC (chemistry not fully specified) [193-G1-002]”, the “binding … to 193-G2-001” value was “reduced binding; also recorded: weaker binding affinities”.

In the case of “UGAAAGCAACAUGUCAAUGAAAGGUAGCCG (chemistry not fully specified) [192-A10-005]”, the “binding affinity of derivatives of 192-A10-001 in competitive pull-down binding assay” value is reported as “reduced binding affinity”.

In the case of “GGGGUUAGGGCUUAAAGUCGGCUGAUUCU (Made as D-RNA aptamer and L-RNA Spiegelmer, tested form not given here, further chemistry not given here) [190-A3-007]”, the “binding affinity of derivatives of 190-A3-001” value is reported as “very strong reduction of binding affinity”.

“GUGCAAAGCAACAUGUCAAUGAAAGGUAGCGCGC (aptamer; chemistry not given here) [192-A10-018]” was tested, and the “binding affinity of derivatives of 192-A10-001 in competitive pull-down binding assay” value was “weaker, much weaker or very much weaker binding affinity”.

With “GCUGUGAAAGUAACAAGUCAAUGAAAGGUAACCACAGC (aptamer; Made as D-RNA aptamer and L-RNA Spiegelmer, tested form not given here, further chemistry not given here) [192-C10]” the “binding affinity in competitive pull-down binding assay vs. 192-A10-001” value was “equal binding affinities; also recorded: equal binding affinity”.

“CCCGGGUUAGGGCUAGAAGUCGGCGGG (chemistry not fully specified) [191-D5-029]” was tested, and the “binding affinity in competitive pull-down binding assay vs. 191-D5-007” value was “reduced binding affinity”.

“GUGUUGCGGAGGUUAGGGCUAGAAGUCGGUCAGCAGCAC (chemistry not given here) [197-H1]” was tested, and the “binding affinity in competitive pull-down binding assay vs. 192-A10-001” value was “weaker binding affinities”.

“GCUGUGAAAGUAACACGUCAAUGAAAGGUAACCACAGC (aptamer; Made as D-RNA aptamer and L-RNA Spiegelmer, tested form not given here, further chemistry not given here) [192-B11]” was tested, and the “binding affinity in competitive pull-down binding assay vs. 192-A10-001” value was “equal binding affinities; also recorded: equal binding affinity”.

“GCUGUAAAAGUAACAAGUCAAUGAAAGGUAACUACAGC (aptamer; Made as D-RNA aptamer and L-RNA Spiegelmer, tested form not given here, further chemistry not given here) [192-E10]” was tested, and the “binding affinity in competitive pull-down binding assay vs. 192-A10-001” value was “Weaker binding affinity; also recorded: reduced binding affinity”.

“UGAGAUAGGGGUUAGGGCUUAAAGUCGGCUGAUUCUCA (aptamer; Made as D-RNA aptamer and L-RNA Spiegelmer, tested form not given here, further chemistry not given here) [190-A3-003]” was tested, and the “binding affinity of derivatives of 190-A3-001” value was “does not have an influence on the binding affinity”.

For “GUGCUGCCGGGGUUAGGGCUAA-AGUCGGCCGACAGCAC (GUGCUGCCGGGGUUAGGGCUAAAGUCGGCCGACAGCAC; chemistry not given here) [197-D1]”, the “binding affinity in competitive pull-down binding assay vs. 192-A10-001” value was “Much weaker binding affinity”.

With “GCCCGUGUGAUCUAGAUGUAUUGGCUGAUCCUAGUCAGGGGGC (chemistry not fully specified) [193-G2-017]” the “binding affinity of derivatives of 193-G2-001 and 193-C2-001 in competitive pull-down binding assay” value was “reduced binding affinity”.

In the case of “CCGCGGUUAGGGCUAGAAGUCGGGCGG (chemistry not given here) [191-D5-017]”, the “binding affinity in competitive pull-down binding assay vs. 191-D5-007” value is reported as “reduced binding affinity”.

In the case of “GCGCGAAAGCAACAUGUCAAUGAAAGGUAGCCGCGC (aptamer; Made as D-RNA aptamer and L-RNA Spiegelmer, tested form not given here, further chemistry not given here) [192-A10-015]”, the “binding affinity of derivatives of 192-A10-001 in competitive pull-down binding assay” value is reported as “reduced binding affinity; also recorded: weaker, much weaker or very much weaker binding affinity”.

“CGCGAAAGCAACAUGUCAAUGAAAGGUAGCCGUG (aptamer; chemistry not given here) [192-A10-019]” was tested, and the “binding affinity of derivatives of 192-A10-001 in competitive pull-down binding assay” value was “weaker, much weaker or very much weaker binding affinity”.

“GGCCAAAGCAACAUGUCAAUGAAAGGUAGCGGCC (aptamer; chemistry not given here) [192-A10-021]” was tested, and the “binding affinity of derivatives of 192-A10-001 in competitive pull-down binding assay” value was “weaker, much weaker or very much weaker binding affinity”.

For “UGGUGUGAUCUAGAUGUAGUGGCUGAUCCUAGUCAGGUA (Made as D-RNA aptamer and L-RNA Spiegelmer, tested form not given here, further chemistry not given here) [193-C2-005]”, the “binding affinity of derivatives of 193-G2-001 and 193-C2-001 in competitive pull-down binding assay” value was “reduced binding affinity”.
